Data as given in ChEMBL document CHEMBL2321873, “1-(4-Phenylpiperazin-1-yl)-2-(1H-pyrazol-1-yl)ethanones as novel CCR1 antagonists” (Bioorg Med Chem Lett, 2013).
The source made the active and inactive calls. No cut-off for these calls is given here.

How the values were obtained:
Cytochrome P450 2C9 = Cytochrome P450 2C9 (Homo sapiens, UniProt P11712); assay: Competitive inhibition of CYP2C9 (unknown origin); format: ADME
[1] = target: C-C chemokine receptor type 8 (Homo sapiens) (UniProt P51685); assay: Antagonist activity at CCR8 (unknown origin) assessed as inhibition of calcium flux at 10 uM; format: functional
[2] = target: T1, C-C chemokine receptor type 6 (Homo sapiens) (UniProt P51684); assay: Binding affinity to CCR6 (unknown origin) at 10 uM by radioligand displacement assay
T1 sequence (whole entry): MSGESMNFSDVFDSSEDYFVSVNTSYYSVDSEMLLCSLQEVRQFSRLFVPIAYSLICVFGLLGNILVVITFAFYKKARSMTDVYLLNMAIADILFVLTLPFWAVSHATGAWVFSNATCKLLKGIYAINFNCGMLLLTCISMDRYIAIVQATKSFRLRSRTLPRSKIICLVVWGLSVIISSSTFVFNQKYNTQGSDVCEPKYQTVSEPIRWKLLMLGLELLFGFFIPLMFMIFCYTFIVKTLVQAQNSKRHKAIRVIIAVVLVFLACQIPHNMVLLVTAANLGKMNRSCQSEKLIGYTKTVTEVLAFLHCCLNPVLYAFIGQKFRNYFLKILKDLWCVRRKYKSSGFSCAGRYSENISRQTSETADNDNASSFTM

[3] = target: T2, C-C chemokine receptor type 3 (Homo sapiens) (UniProt P51677); assay: Binding affinity to CCR3 (unknown origin) at 10 uM by radioligand displacement assay
T2 sequence (whole entry): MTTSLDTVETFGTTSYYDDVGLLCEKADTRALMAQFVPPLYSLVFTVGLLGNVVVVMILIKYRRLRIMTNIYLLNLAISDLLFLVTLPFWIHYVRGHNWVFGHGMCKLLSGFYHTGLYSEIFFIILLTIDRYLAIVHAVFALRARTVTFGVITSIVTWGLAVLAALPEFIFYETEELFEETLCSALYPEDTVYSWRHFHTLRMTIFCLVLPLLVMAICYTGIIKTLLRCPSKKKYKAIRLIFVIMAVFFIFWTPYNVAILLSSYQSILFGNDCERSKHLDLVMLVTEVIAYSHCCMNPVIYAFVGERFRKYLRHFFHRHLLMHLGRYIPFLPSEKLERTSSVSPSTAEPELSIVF

[4] = target: T3, C-X-C chemokine receptor type 1 (Homo sapiens) (UniProt P25024); assay: Antagonist activity at CXCR1 (unknown origin) assessed as inhibition of chemotaxis at 10 uM
T3 sequence (whole entry): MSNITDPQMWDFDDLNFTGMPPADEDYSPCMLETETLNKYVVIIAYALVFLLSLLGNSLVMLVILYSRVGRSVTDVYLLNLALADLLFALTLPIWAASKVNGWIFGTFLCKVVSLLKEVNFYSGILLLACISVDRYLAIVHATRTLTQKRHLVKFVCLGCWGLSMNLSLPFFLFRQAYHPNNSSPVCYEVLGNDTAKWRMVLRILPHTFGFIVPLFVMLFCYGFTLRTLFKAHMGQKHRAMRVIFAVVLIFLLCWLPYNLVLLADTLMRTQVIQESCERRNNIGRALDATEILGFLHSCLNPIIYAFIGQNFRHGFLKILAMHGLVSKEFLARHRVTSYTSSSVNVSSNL

[5] = target: T1, C-C chemokine receptor type 6 (Homo sapiens); assay: Antagonist activity at CCR6 (unknown origin) assessed as inhibition of chemotaxis at 10 uM
[6] = target: T4, C-C chemokine receptor type 10 (Homo sapiens) (UniProt P46092); assay: Antagonist activity at CCR10 (unknown origin) assessed as inhibition of chemotaxis at 10 uM
T4 sequence (whole entry): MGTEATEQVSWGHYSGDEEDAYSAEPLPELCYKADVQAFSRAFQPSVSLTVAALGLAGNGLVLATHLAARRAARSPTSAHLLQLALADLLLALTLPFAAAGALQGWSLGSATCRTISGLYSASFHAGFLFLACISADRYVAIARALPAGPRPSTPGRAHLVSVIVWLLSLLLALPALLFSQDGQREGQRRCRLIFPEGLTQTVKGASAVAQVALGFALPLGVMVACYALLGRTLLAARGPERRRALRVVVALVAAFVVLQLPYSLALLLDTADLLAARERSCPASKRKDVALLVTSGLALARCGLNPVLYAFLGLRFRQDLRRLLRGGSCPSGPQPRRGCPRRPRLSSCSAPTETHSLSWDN

[7] = target: T5, C-C chemokine receptor type 4 (Homo sapiens) (UniProt P51679); assay: Antagonist activity at CCR4 (unknown origin) assessed as inhibition of chemotaxis at 10 uM
T5 sequence (whole entry): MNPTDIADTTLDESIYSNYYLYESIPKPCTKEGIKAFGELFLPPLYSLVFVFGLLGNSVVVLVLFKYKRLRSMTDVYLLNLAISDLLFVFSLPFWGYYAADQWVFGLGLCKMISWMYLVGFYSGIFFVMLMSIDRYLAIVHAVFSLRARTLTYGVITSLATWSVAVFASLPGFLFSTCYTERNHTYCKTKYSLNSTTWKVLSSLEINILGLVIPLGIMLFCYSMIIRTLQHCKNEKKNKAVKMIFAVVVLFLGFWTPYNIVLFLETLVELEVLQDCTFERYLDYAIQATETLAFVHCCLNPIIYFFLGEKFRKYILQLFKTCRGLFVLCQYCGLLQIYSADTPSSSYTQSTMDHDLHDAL

[8] = target: T5, C-C chemokine receptor type 4 (Homo sapiens); assay: Antagonist activity at CCR4 (unknown origin) assessed as inhibition of calcium flux at 10 uM; format: functional
[9] = Plasma clearance in Sprague-Dawley rat at 1 mg/kg, iv; format: ADME, organism-based; parameters: dose 1 mg/kg, route intravenous
[10] = target: T6, Atypical chemokine receptor 1 (Homo sapiens) (UniProt Q16570); assay: Antagonist activity at Duffy (unknown origin) assessed as inhibition of calcium flux at 10 uM; format: functional
T6 sequence (whole entry): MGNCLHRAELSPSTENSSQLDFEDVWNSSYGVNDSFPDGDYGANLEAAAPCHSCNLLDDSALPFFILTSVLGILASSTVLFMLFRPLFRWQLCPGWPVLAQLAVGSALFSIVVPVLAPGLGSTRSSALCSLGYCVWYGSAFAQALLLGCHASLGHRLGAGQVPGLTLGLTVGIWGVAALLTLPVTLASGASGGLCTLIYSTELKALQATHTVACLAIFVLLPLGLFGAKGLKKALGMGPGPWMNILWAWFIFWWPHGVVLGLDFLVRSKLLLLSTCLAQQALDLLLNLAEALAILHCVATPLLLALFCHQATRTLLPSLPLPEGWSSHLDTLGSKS

[11] = target: C-C chemokine receptor type 2 (Homo sapiens) (UniProt P41597); assay: Antagonist activity at CCR2 (unknown origin) assessed as inhibition of calcium flux at 10 uM; format: functional
Cytomegalovirus = assay: Antagonist activity at CMV US28 assessed as inhibition of chemotaxis at 10 uM
Cytochrome P450 1A2 = Cytochrome P450 1A2 (Homo sapiens, UniProt P05177); assay: Competitive inhibition of CYP1A2 (unknown origin); format: ADME
Cytochrome P450 2C19 = Cytochrome P450 2C19 (Homo sapiens, UniProt P33261); assay: Inhibition of CYP2C19 (unknown origin); format: ADME
Cytochrome P450 2C19, sequence (P33261 whole entry): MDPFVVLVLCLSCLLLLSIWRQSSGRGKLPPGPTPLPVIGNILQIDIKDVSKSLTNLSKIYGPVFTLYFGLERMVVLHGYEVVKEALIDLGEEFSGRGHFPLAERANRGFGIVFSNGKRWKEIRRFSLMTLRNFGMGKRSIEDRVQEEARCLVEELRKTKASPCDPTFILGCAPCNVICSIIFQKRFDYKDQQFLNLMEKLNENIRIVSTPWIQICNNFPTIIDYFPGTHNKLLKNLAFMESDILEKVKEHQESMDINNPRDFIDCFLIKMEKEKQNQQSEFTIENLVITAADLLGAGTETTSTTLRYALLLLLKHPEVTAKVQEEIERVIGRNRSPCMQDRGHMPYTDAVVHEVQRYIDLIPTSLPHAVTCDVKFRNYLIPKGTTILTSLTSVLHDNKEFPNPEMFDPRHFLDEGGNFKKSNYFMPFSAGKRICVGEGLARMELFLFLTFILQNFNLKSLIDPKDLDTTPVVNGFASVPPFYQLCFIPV

C-C chemokine receptor type 2 (Homo sapiens), sequence (P41597 whole entry, looked up): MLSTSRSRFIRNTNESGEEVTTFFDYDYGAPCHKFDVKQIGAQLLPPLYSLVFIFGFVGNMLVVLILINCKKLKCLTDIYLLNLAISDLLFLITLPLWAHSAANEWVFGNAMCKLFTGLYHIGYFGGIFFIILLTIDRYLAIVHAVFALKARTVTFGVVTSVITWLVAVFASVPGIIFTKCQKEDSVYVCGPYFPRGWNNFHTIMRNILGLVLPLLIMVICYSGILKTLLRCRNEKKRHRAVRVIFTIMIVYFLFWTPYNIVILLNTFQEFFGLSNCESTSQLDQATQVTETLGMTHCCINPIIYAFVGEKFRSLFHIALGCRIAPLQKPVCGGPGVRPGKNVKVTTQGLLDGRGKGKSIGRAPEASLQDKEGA
Cytochrome P450 1A2, sequence (P05177 whole entry): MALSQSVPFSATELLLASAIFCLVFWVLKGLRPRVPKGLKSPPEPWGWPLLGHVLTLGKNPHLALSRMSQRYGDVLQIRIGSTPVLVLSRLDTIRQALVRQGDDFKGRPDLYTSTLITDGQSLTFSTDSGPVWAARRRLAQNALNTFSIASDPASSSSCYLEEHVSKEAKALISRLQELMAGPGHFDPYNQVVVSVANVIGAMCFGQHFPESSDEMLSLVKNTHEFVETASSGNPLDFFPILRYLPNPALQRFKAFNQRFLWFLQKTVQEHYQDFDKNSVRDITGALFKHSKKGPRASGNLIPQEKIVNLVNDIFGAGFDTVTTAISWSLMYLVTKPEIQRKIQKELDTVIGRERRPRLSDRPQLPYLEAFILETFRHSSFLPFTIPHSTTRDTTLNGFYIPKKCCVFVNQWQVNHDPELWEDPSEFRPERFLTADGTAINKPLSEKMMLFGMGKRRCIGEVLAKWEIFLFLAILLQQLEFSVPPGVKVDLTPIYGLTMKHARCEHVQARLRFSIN
Cytochrome P450 2C9, sequence (P11712 whole entry): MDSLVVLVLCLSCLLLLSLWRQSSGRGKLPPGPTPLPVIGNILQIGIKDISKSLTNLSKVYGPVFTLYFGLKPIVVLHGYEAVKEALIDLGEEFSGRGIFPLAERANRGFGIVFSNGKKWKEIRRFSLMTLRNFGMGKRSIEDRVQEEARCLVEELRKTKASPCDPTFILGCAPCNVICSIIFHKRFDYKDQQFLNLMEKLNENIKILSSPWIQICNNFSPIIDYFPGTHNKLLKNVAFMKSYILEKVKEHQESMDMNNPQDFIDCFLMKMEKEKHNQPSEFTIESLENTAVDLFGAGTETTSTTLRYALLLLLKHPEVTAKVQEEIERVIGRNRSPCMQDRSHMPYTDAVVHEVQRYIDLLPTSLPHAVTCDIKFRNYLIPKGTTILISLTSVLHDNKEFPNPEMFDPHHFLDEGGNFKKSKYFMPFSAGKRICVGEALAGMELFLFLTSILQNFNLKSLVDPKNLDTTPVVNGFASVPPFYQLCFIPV
C-C chemokine receptor type 8 (Homo sapiens), sequence (P51685 whole entry): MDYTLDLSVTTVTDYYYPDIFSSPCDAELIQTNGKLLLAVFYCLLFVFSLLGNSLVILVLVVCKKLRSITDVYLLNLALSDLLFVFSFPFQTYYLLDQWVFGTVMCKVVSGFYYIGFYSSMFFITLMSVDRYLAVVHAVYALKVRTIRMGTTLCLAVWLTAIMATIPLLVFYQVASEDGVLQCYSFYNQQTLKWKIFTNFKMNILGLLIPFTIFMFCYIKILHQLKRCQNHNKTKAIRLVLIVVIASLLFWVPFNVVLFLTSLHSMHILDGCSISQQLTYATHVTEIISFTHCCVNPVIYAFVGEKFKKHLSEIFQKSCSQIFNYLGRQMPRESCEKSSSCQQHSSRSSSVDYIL

**Q.** What does the source list for `COc1cc(N2CCN(C(=O)Cn3nc(C(F)(F)F)c(Cl)c3C)CC2)ccc1Cl`?
**A.** IC50 (Cytochrome P450 2C9): > 10 µM; inhibition [1]: inactive; Activity [2]: inactive; Activity [3]: inactive; inhibition [4]: inactive; inhibition [5]: inactive; inhibition [6]: inactive; inhibition [7]: inactive; inhibition [8]: inactive; clearance [9]: 20 mL/min/kg; inhibition [10]: inactive; inhibition [11]: inactive; inhibition (Cytomegalovirus): inactive; IC50 (Cytochrome P450 1A2): > 10 µM; IC50 (Cytochrome P450 2C19): 6 µM
